In PMC12789660, “Mycobacterial respiratory chain enzymes and growth are inhibited by decylubiquinone” (Communications Biology, 2025):

Experiments:
[1] = target: T1, QcrB subunit of CIII2 (CIII2CIV2 supercomplex) (Mycolicibacterium smegmatis, UniProt A0R052); assay: cryo-EM structure, […] Å; DCQ modeled in oxidized state at […] occupancy (shared with MQ); format: binding; set-up: gene MSMEG_4263; intact CIII2CIV2 supercomplex purified in GDN, C-terminally FLAG-tagged on QcrB; with QcrA (Rieske), QcrC and CIV subunits of the CIII2CIV2 supercomplex
cytochrome bd-I = target: T2, cytochrome bd-I (Mycolicibacterium smegmatis, UniProt A0QXA8); assay: O2 reduction rate, Clark-type electrode; turnover at […]; format: biochemical
T2 construct: gene MSMEG_3233; purified cytochrome bd-I (cydAB, Strep-tagged on CydB) in DDM; with CydB
T2 sequence (A0QXA8 1-487): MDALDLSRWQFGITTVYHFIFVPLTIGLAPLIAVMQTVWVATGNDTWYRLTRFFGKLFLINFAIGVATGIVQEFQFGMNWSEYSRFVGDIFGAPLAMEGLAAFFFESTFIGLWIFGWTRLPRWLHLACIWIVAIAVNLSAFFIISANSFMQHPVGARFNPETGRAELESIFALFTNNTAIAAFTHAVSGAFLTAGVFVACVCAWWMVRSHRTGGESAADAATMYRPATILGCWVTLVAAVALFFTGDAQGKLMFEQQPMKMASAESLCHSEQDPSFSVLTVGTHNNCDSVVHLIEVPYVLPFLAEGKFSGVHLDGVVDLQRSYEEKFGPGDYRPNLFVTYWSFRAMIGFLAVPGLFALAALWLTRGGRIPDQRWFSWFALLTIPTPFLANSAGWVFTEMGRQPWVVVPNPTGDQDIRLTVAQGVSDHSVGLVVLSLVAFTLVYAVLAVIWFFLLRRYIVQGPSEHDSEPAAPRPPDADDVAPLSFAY
T2 sequence (A0QXA7 1-350 partner): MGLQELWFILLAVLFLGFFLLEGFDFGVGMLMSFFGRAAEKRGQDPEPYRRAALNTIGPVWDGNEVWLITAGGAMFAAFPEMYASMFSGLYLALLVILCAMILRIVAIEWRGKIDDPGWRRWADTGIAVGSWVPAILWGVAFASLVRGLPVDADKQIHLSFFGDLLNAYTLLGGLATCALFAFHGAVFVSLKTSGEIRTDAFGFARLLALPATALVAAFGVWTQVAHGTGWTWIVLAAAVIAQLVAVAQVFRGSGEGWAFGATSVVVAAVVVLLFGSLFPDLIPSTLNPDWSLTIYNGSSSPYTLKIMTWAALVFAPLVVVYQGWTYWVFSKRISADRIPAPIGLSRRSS

[2] = target: T1, QcrB subunit of CIII2 (CIII2CIV2 supercomplex); assay: O2 reduction rate, Clark-type oxygen electrode; turnover […] s^−[…] at […]; format: biochemical; set-up: gene MSMEG_4263; intact purified CIII2CIV2 supercomplex, C-terminally FLAG-tagged on QcrB; with QcrA (Rieske), QcrC and CIV subunits of the CIII2CIV2 supercomplex
[3] = target: T3, QcrB subunit of CIII2 (CIII2CIV2 supercomplex), AAA variant (Mycolicibacterium smegmatis, UniProt A0R052, F153A/M305A/M337A); assay: biochemical
T3 construct: gene MSMEG_4263

[4] = target: T1, QcrB subunit of CIII2 (CIII2CIV2 supercomplex); assay: DMNQH2 oxidation:O2 reduction activity, Clark-type oxygen electrode; format: biochemical; set-up: gene MSMEG_4263; intact purified CIII2CIV2 supercomplex, C-terminally FLAG-tagged on QcrB; with QcrA (Rieske), QcrC and CIV subunits of the CIII2CIV2 supercomplex

CCCCCCCCCCC1=C(C)C(=O)C(OC)=C(OC)C1=O [DCQ, decylubiquinone]
cryo-EM structure, 2.5 Å; DCQ modeled in oxidized state at 50% occupancy (shared) [1]: The DCQ density is seen in the more distal Qo1b position, i.e., the same as that of the native MQ

Cc1c(C)c(O)c2ccccc2c1O [DMNQH2]
O2 reduction rate, Clark-type electrode; turnover at 300 μM (cytochrome bd-I): 18 ± 1 s⁻¹ | O2 reduction rate, Clark-type oxygen electrode; turnover 80 ± 10 s^-1 at 100 μM [2]: 80 ± 10 s⁻¹

CCCCCCCCCCc1c(C)c(O)c(OC)c(OC)c1O [DCQH2]
IC50 [3]: ~130 µM | IC50 [4]: ~70 µM
